Here are results for 28 compounds from patent US10471046B2, “Method for treating, preventing, or reducing the risk of skin infection” (Melinta Subsidiary Corp., priority 2014, dated 2019).

Each structure is given as a SMILES string. ≈ marks a conversion by molar mass, not a printed value. Where two headings read alike, the source gives them in different places.

In the assay the test system is S. aureus. In words: Minimum inhibitory concentrations (MICs) for S. aureus of exemplary compounds (Table 2). The conditions noted are these: Staphylococcus aureus, read-out: MICs. In kind it is cell-based. An excerpt:
Exemplary compounds in accordance with the invention are listed in Table 2 with their minimum inhibitory concentrations (MICs) (μg/mL) for S. aureus:
Furthermore, the antibiotic compounds can be assayed for anti-proliferative or anti-infective properties on a cellular level. For example, where the target organism is a microorganism, the activity of compounds of interest can be assayed by growing the microorganisms of interest in media either containing or lacking the compound. Growth inhibition can be indicative that the molecule could be acting as a protein synthesis inhibitor. […] For this purpose, a panel of bacterial strains can be assembled to include a variety of target pathogenic species, some containing resistance mechanisms that have been characterized. Use of such a panel of organisms permits the determination of structure-activity relationships not only in regards to potency and spectrum, but also with a view to obviating resistance mechanisms. The assays can be performed in microtiter trays according to conventional methodologies as published by The National Committee for Clinical Laboratory Standards (NCCLS) guidelines (NCCLS. M7-A5-Methods for Dilution Antimicrobial Susceptibility Tests for Bacteria That Grow Aerobically; Approved Standard-Fifth Edition. NCCLS Document M100-S12/M7 (ISBN 1-56238-394-9)).

The mark [1] stands for this setting: minimum inhibitory concentrations for S. aureus.

For the compound `CC(=O)NC[C@H]1CN(c2ccc(-c3ccc(CN(Cc4csnn4)C(N)=O)cc3)c(F)c2)C(=O)O1` [Compound 4299, N-{3-[2-Fluoro-4′-(1-[1,2,3]thiadiazol-4-ylmethyl-ureidomethyl)-biphenyl-4-yl]-2-oxo-oxazolidin-5-(S)-ylmethyl}-acetamide], the MIC under setting [1] was found to be 2 µg/mL (≈ 4.01 µM).

With `CC(=O)NC[C@H]1CN(c2ccc(-c3ccc(CNCc4ccco4)cc3)c(F)c2)C(=O)O1` [Compound 4026, N-[3-(2-Fluoro-4′-{[(furan-2-ylmethyl)-amino]-methyl}-biphenyl-4-yl)-2-oxo-oxazolidin-5-(S)-ylmethyl]-acetamide], under setting [1], the MIC turned out to be 1 µg/mL (≈ 2.29 µM).

For `CC(=O)NC[C@H]1CN(c2ccc(-c3ccc(Cc4noc(C)n4)cc3)c(F)c2)C(=O)O1` [Compound 1017, N-{3-[2-Fluoro-4′-(5-(S)-methyl-[1,2,4]oxadiazol-3-ylmethyl)-biphenyl-4-yl]-2-oxo-oxazolidin-5-(S)-ylmethyl}-acetamide], under setting [1], the MIC is 1 µg/mL (≈ 2.36 µM).

`CC(=O)NC[C@H]1CN(c2ccc(-c3ccc(CNCc4ccco4)c(F)c3F)c(F)c2)C(=O)O1` [Compound 4088, N-[2-Oxo-3-(2,2′,3′-trifluoro-4′-{[(furan-2-ylmethyl)-amino]-methyl}-biphenyl-4-yl)-oxazolidin-5-(S)-ylmethyl]-acetamide]: the MIC under setting [1] came to 2 µg/mL (≈ 4.22 µM).

As for `CNCc1cn(Cc2ccc(-c3ccc(N4C[C@H](CNC(C)=O)OC4=O)cc3F)cc2)nn1` [Compound 1012, N-{3-[2-Fluoro-4′-(4-methylaminomethyl-[1,2,3]triazol-1-ylmethyl)-biphenyl-4-yl]-2-oxo-oxazolidin-5-(S)-ylmethyl}-acetamide], the MIC under setting [1] was 2 µg/mL (≈ 4.42 µM).

`CC(=O)NC[C@H]1CN(c2ccc(-c3ccc(Cn4cncn4)nc3)c(F)c2)C(=O)O1` [Compound 1072, N-{3-[3-Fluoro-4-(6-[1,2,4]triazol-1-ylmethyl-pyridin-3-yl)-phenyl]-2-oxo-oxazolidin-5-(S)-ylmethyl}-acetamide]: the MIC under setting [1] was determined as 1 µg/mL (≈ 2.44 µM).

As to `CC(=O)NC[C@H]1CN(c2ccc(-c3ccc(CNNC(=O)c4snnc4C)cc3)c(F)c2)C(=O)O1` [Compound 4271, N-(3-{2-Fluoro-4′-[N′-(4-methyl-[1,2,3]thiadiazole-carbonyl)-hydrazinomethyl]-biphenyl-4-yl}-2-oxo-oxazolidin-5-(S)-ylmethyl)-acetamide], under setting [1], the MIC worked out at 0.25 µg/mL (≈ 0.501 µM).

As for `CC(=O)NC[C@H]1CN(c2ccc(-c3ccc(CNNC4=NCCN4)cc3)c(F)c2)C(=O)O1` [Compound 2049, N-(3-{4′-[N′-(4,5-Dihydro-1H-imidazol-2-yl)-hydrazinomethyl]-2-fluoro-biphenyl-4-yl}-2-oxo-oxazolidin-5-(S)-ylmethyl)-acetamide], under setting [1], the MIC was determined as 2 µg/mL (≈ 4.54 µM).

Turning to `CC(=O)NC[C@H]1CN(c2ccc(-c3ccc(C(N)c4nnn(C)n4)cc3)c(F)c2)C(=O)O1` (mixture of isomers) [Compound 1042, N-(3-{4′-[Amino-(2-methyl-2H-tetrazol-5-(R/S)-yl)-methyl]-2-fluoro-biphenyl-4-yl}-2-oxo-oxazolidin-5-(S)-ylmethyl)-acetamide], the MIC under setting [1] worked out at 64 µg/mL (≈ 146 µM).

Take `CC(=O)NC[C@H]1CN(c2ccc(-c3ccc(C[S+]([O-])c4ncnn4C)cc3)c(F)c2)C(=O)O1` (stereo partly drawn) [Compound 2039, N-{3-[2-Fluoro-4′-(2-methyl-2H-[1,2,4]triazole-3-sulfinylmethyl)-biphenyl-4-yl]-2-oxo-oxazolidin-5-(S)-ylmethyl}-acetamide]: under setting [1], the MIC is 2 µg/mL (≈ 4.24 µM).

With `CC(=O)NC[C@H]1CN(c2ccc(-c3ccc(CNCc4cc5ccccc5o4)cc3)c(F)c2)C(=O)O1` [Compound 4020], the MIC under setting [1] was 2 µg/mL (≈ 4.1 µM).

As for `CC(=O)NC[C@H]1CN(c2ccc(-c3ccc(CN(CCCF)OCc4ccccc4)cc3)c(F)c2)C(=O)O1` [Compound 4265, N-[3-(4′-{[Benzyloxy-(3-fluoro-propyl)-amino]-methyl}-2-fluoro-biphenyl-4-yl)-2-oxo-oxazolidin-5-(S)-ylmethyl]-acetamide], the MIC under setting [1] was 4 µg/mL (≈ 7.64 µM).

For `CC(=O)NC[C@H]1CN(c2ccc(-c3ccc(CN4CC[C@@H](N)C4)cc3)c(F)c2)C(=O)O1` [Compound 1091, N-{3-[4′-(3-(R)-Amino-pyrrolidin-1-ylmethyl)-2-fluoro-biphenyl-4-yl]-2-oxo-oxazolidin-5-(S)-ylmethyl}-acetamide], the MIC under setting [1] is 2 µg/mL (≈ 4.69 µM).

For the compound `CC(=O)NC[C@H]1CN(c2ccc(-c3ccc(CNCC4CCNC4)cc3)c(F)c2)C(=O)O1` (mixture of isomers) [Compound 4153, N-[3-(2-Fluoro-4′-{[(pyrrolidin-3-(R/S)-ylmethyl)-amino]-methyl}-biphenyl-4-yl)-2-oxo-oxazolidin-5-(S)-ylmethyl]-acetamide], the MIC under setting [1] was determined as 4 µg/mL.

As to `CC(=O)NC[C@H]1CN(c2ccc(-c3ccc(Cn4cc(CNC(=O)CN)nn4)cc3)c(F)c2)C(=O)O1` [Compound 1014, N-(1-{4′-[5-(S)-(Acetylamino-methyl)-2-oxo-oxazolidin-3-yl]-2′-fluoro-biphenyl-4-ylmethyl}-1H-[1,2,3]triazol-4-ylmethyl)-2-amino-acetamide], under setting [1], the MIC stood at 8 µg/mL (≈ 16.1 µM).

Take `CC(=O)NC[C@H]1CN(c2ccc(-c3ccc(S(=O)(=O)Cc4ccncc4)cc3)c(F)c2)C(=O)O1` [Compound 3003, N-{3-[2-Fluoro-4′-(pyridin-4-ylmethanesulfonyl)-biphenyl-4-yl]-2-oxo-oxazolidin-5-(S)-ylmethyl}-acetamide]: the MIC under setting [1] is 2 µg/mL (≈ 4.14 µM).

For `CC(=O)NC[C@H]1CN(c2ccc(-c3ccc(CNCC4CO4)cc3)c(F)c2)C(=O)O1` (stereo partly drawn) [Compound 4210, N-(3-{2-Fluoro-4′-[(oxiranylmethyl-amino)-methyl]-biphenyl-4-yl}-2-oxo-oxazolidin-5-(S)-ylmethyl)-acetamide], the MIC under setting [1] was 4 µg/mL (≈ 9.67 µM).

Turning to `CC(=O)NC[C@H]1CN(c2ccc(-c3ccc(CNCc4ccc(Br)o4)cc3)c(F)c2)C(=O)O1` [Compound 4078, N-[3-(4′-{[(5-Bromo-furan-2-ylmethyl)-amino]-methyl}-2-fluoro-biphenyl-4-yl)-2-oxo-oxazolidin-5-(S)-ylmethyl]-acetamide], the MIC under setting [1] worked out at 2 µg/mL (≈ 3.87 µM).

As for `CC(=O)NC[C@H]1CN(c2ccc(-c3ccc(Cc4csc(NCC5CCCO5)n4)cc3)c(F)c2)C(=O)O1` (stereo partly drawn) [Compound 1020, N-[3-(2-Fluoro-4′-{2-[(tetrahydro-furan-2-ylmethyl)-amino]-thiazol-4-ylmethyl}-biphenyl-4-yl)-2-oxo-oxazolidin-5-(S)-ylmethyl]-acetamide], the MIC was 1 µg/mL (≈ 1.91 µM).

For the compound `CC(=O)NC[C@H]1CN(c2ccc(-c3ccc(Cn4ccnc4N)cc3)c(F)c2)C(=O)O1` [Compound 1113, N-{3-[4′-(2-Amino-imidazol-1-ylmethyl)-2-fluoro-biphenyl-4-yl]-2-oxo-oxazolidin-5-(S)-ylmethyl}-acetamide], under setting [1], the MIC was 2 µg/mL (≈ 4.72 µM).

For the compound `CC(=O)NC[C@H]1CN(c2ccc(-c3ccc(CN4CC(CF)OC4=O)cc3)c(F)c2)C(=O)O1` (mixture of isomers) [Compound 1095, N-{3-[2-Fluoro-4′-(5-fluoromethyl-2-oxo-oxazolidin-3-(R/S)ylmethyl)-biphenyl-4-yl]-2-oxo-oxazolidin-5-(S)-ylmethyl}-acetamide], under setting [1], the MIC was 0.5 µg/mL (≈ 1.09 µM).

Regarding `CC(=O)NC[C@H]1CN(c2ccc(-c3ccc(CNCC(CF)n4ccnn4)cc3)c(F)c2)C(=O)O1` (stereo partly drawn) [Compound 4274, N-(3-{2-Fluoro-4′-[(3-fluoro-2-[1,2,3]triazol-1-yl-propylamino)-methyl]-biphenyl-4-yl}-2-oxo-oxazolidin-5-(S)-ylmethyl)-acetamide], the MIC under setting [1] came to 2 µg/mL (≈ 4.13 µM).

On to `CC(=O)NC[C@H]1CC(c2ccc(-c3ccc(CNCc4ccncc4)cc3)cc2)=NO1` [Compound 4132, N-[3-(4′-{[(Pyridin-4-ylmethyl)-amino]-methyl}-biphenyl-4-yl)-4,5-dihydro-isoxazol-5-(R)-ylmethyl]-acetamide], for which, under setting [1], the MIC was 4 µg/mL (≈ 9.65 µM).

Regarding `CC(=O)NC[C@H]1CN(c2ccc(-c3ccc(CNC(=O)c4csc(C)n4)cc3)c(F)c2)C(=O)O1` [Compound 4242, 2-Methyl-thiazole-4-carboxylic acid {4′-[5-(S)-(acetylamino-methyl)-2-oxo-oxazolidin-3-yl]-2′-fluoro-biphenyl-4-ylmethyl}-amide], the MIC under setting [1] came out at 2 µg/mL (≈ 4.14 µM).

As for `CCC(O)Cc1cn(CC(=O)NCc2ccc(-c3ccc(N4C[C@H](CNC(C)=O)OC4=O)cc3F)cc2)nn1` (stereo partly drawn) [Compound 4241, N-{4′-[5-(S)-(Acetylamino-methyl)-2-oxo-oxazolidin-3-yl]-2′-fluoro-biphenyl-4-ylmethyl}-2-[4-(2-hydroxy-butyl)-[1,2,3]triazol-1-yl]-acetamide], the MIC under setting [1] came to 4 µg/mL (≈ 7.43 µM).

On to `CC(=O)NC[C@H]1CN(c2ccc(-c3ccc(Cn4cnc5c(N(C)C)ncnc54)cc3)c(F)c2)C(=O)O1` [Compound 1105, N-{3-[4′-(6-Dimethylamino-purin-9-ylmethyl)-2-fluoro-biphenyl-4-yl]-2-oxo-oxazolidin-5-(S)-ylmethyl}-acetamide], for which the MIC under setting [1] worked out at 1 µg/mL (≈ 1.99 µM).

Take `CC(=O)NC[C@H]1CN(c2ccc(-c3ccc(CNCCCN4CCCC4=O)cc3)c(F)c2)C(=O)O1` [Compound 4156, N-[3-(2-Fluoro-4′-{[3-(2-oxo-pyrrolidin-1-yl)-propylamino]-methyl}-biphenyl-4-yl)-2-oxo-oxazolidin-5-(S)-ylmethyl]-acetamide]: under setting [1], the MIC came to 16 µg/mL (≈ 33.2 µM).

In the case of `CC(=O)NC[C@H]1CN(c2ccc(-c3ccc(CNCC(=O)N4CCNCC4)cc3)c(F)c2)C(=O)O1` [Compound 4314, N-(3-{2-Fluoro-4′-[(2-oxo-2-piperazin-1-yl-ethylamino)-methyl]-biphenyl-4-yl}-2-oxo-oxazolidin-5-(S)-ylmethyl)-acetamide], the MIC under setting [1] is 4 µg/mL (≈ 8.27 µM).
